According to patent publication US20250230193A1, “CYCLIC COMPOUND HAVING SELECTIVE KRAS INHIBITORY EFFECT ON HRAS AND NRAS” (CHUGAI SEIYAKU KABUSHIKI KAISHA, priority 2022, published 2025):
*1 amine or outer side, *2 acyl side, *3 side chain or, on linkers, in order; H or OH if unused. Where a SMILES comes first, the peptide text is derived from it. Bridges are numbered along the chain shown (N, C = ends). [ ]: non-standard residue; d: D form. The star is where a group is joined. hPhe(3-Cl-4-CF3) = N[C@@H](CCc1ccc(C(F)(F)F)c(Cl)c1)C(=O)O; X31 = O=C([C@H](Cc1ccc(C(F)(F)F)cc1)N(CC1CC1)[*:1])[*:2]; NPrPhe(4-CF3) = CCCN[C@@H](Cc1ccc(C(F)(F)F)cc1)C(=O)O; NMeGly(cPent) = CN[C@H](C(=O)O)C1CCCC1; NMeD = CN[C@@H](CC(=O)O)C(=O)O; NMeL = CN[C@@H](CC(C)C)C(=O)O; Morpholide = C1CN(*)CCO1; Ac5c = NC1(C(=O)O)CCCC1; NEtG = CCNCC(=O)O; Sar = CNCC(=O)O

How the values were obtained:
[1] = biological target: GDP-bound NRAS wild-type protein (Homo sapiens, UniProt P01111); assay: Binding to NRAS by surface plasmon resonance (SPR), Single Cycle Kinetics; settings: for NRAS/KRAS (ratio of KD value with respect to NRAS to KD value with respect to KRAS): GDP-bound NRAS wild-type vs GDP-bound KRAS wild-type
Chain of GDP-bound NRAS wild-type protein (P01111 whole entry): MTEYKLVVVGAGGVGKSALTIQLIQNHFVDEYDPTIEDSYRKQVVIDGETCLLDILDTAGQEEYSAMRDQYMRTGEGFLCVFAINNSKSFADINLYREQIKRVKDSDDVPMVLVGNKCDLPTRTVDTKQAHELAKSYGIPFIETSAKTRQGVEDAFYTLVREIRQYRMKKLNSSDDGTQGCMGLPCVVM

[2] = biological target: GDP-bound HRAS wild-type protein (Homo sapiens, UniProt P01112); assay: Binding to HRAS by surface plasmon resonance (SPR), Single Cycle Kinetics; settings: for HRAS/KRAS (ratio of KD value with respect to HRAS to KD value with respect to KRAS): GDP-bound HRAS wild-type vs GDP-bound KRAS wild-type
Chain of GDP-bound HRAS wild-type protein (P01112 whole entry): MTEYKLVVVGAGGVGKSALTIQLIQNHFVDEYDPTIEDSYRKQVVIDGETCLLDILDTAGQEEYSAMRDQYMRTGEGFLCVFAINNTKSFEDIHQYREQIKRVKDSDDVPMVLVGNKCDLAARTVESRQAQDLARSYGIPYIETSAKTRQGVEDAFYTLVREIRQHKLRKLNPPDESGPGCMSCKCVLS

[3] = SPR, GDP-bound wild-type proteins

What does the source list for `CC[C@H](C)[C@@H]1NC(=O)[C@H](CC)N(C)C(=O)C[C@@H](C(=O)N(C)C)N(C)C(=O)[C@H](C2CCCC2)N(C)C(=O)C2(CCC2)NC(=O)[C@@H]2CSCCN2C(=O)[C@H](CCc2cc(F)c(C(F)(F)F)c(F)c2)NC(=O)CN(C)C(=O)[C@H](Cc2ccc(C(F)(F)F)cc2)N2CC/C=C\C[C@@H](C2=O)N(C)C(=O)CN(C)C1=O` [PP1137]?
NRAS/KRAS (ratio of KD value with respect to NRAS to KD value with respect to KRAS) ([1]; SPR): AA (a compound having 20 or more is denoted as AA); HRAS/KRAS (ratio of KD value with respect to HRAS to KD value with respect to KRAS) ([2]; SPR): A (a compound having 10 or more and less than 20 is denoted as A)

With `CCCO[C@@H]1C[C@H]2C(=O)NC3(CCC3)C(=O)N(C)[C@@H](C3CCCC3)C(=O)N(C)[C@H](C(=O)N3CCOCC3)CC(=O)N(C)[C@@H](CC(C)C)C(=O)N[C@@H]([C@@H](C)CC)C(=O)N(C)CC(=O)N(C)[C@H]3CCCCCN(C3=O)[C@@H](Cc3ccc(C(F)(F)F)cc3)C(=O)N(C)CC(=O)N[C@@H](CCc3cc(F)c(C(F)(F)F)c(F)c3)C(=O)N2C1` [PP1161] as the molecule, how does the “NRAS/KRAS (ratio of KD value with respect to NRAS to KD value with respect to KRAS)” value ([1]; SPR) read?
Its value is “B (a compound having 3 or more and less than 10 is denoted as B)”.

And the “HRAS/KRAS (ratio of KD value with respect to HRAS to KD value with respect to KRAS)” value ([2]; SPR)?
The value was “B (a compound having 3 or more and less than 10 is denoted as B)”.

How did the “NRAS/KRAS (ratio of KD value with respect to GDP-bound NRAS wild-type protein to KD value with respect to KRAS)” value [1, 3] turn out when `CCC[C@H]1C(=O)N[C@@H]([C@@H](C)CC)C(=O)N(C)CC(=O)N(C)[C@H]2C/C=C\CCN(C2=O)[C@@H](Cc2ccc(C(F)(F)F)cc2)C(=O)N(C)CC(=O)N[C@@H](CCc2ccc(C(F)(F)F)c(Cl)c2)C(=O)N2CC3(CC3)C[C@H]2C(=O)NC2(CC(C)(C)C2)C(=O)N(C)[C@@H](CC(F)(F)F)C(=O)N(C)[C@H](C(=O)N(C)C)CC(=O)N1C` [PP2985] was run?
The value was “AA (a compound having 20 or more is denoted as AA)”.

What about the “HRAS/KRAS (ratio of KD value with respect to GDP-bound HRAS wild-type protein to KD value with respect to KRAS)” value [2, 3] of the same molecule?
The value was “A (a compound having 10 or more and less than 20 is denoted as A)”.

`CC[C@H](C)[C@@H]1NC(=O)[C@H](CC(C)C)N(C)C(=O)C[C@@H](C(=O)N2CCOCC2)N(C)C(=O)[C@H](C2CCCC2)N(C)C(=O)C2(CCCC2)NC(=O)[C@@H]2CCCN2C(=O)[C@H](CCc2ccc(C(F)(F)F)c(Cl)c2)NC(=O)CN(C)C(=O)[C@H](Cc2ccc(C(F)(F)F)cc2)N(CC2CC2)C(=O)CN(C)C(=O)CN(C)C1=O` [PP0122] ([NMeL]I[Sar][Sar][X31][Sar][hPhe(3-Cl-4-CF3)]P[Ac5c][NMeGly(cPent)][NMeD]-Morpholide; lactam N-11) was tested. Which “NRAS/KRAS (ratio of KD for GDP-bound NRAS wild-type to KD for KRAS)” value ([1]; SPR) did it give?
The value was “C (A compound having a KD ratio of 0.1 or more and less than 3 is denoted as C)”.

And the “HRAS/KRAS (ratio of KD for GDP-bound HRAS wild-type to KD for KRAS)” value ([2]; SPR)?
Its value is “C (A compound having a KD ratio of 0.1 or more and less than 3 is denoted as C)”.

What does the source list for `CCCN1C(=O)CN(C)C(=O)CN(C)C(=O)[C@H]([C@@H](C)CC)NC(=O)[C@H](CC(C)C)N(C)C(=O)C[C@@H](C(=O)N2CCOCC2)N(C)C(=O)[C@H](C2CCCC2)N(C)C(=O)C2(CCCC2)NC(=O)CN(CC)C(=O)[C@H](CCc2ccc(C(F)(F)F)c(Cl)c2)NC(=O)CN(C)C(=O)[C@@H]1Cc1ccc(C(F)(F)F)cc1` [PP0144] ([NMeL]I[Sar][Sar][NPrPhe(4-CF3)][Sar][hPhe(3-Cl-4-CF3)][NEtG][Ac5c][NMeGly(cPent)][NMeD]-Morpholide; lactam N-11)?
NRAS/KRAS (ratio of KD for GDP-bound NRAS wild-type to KD for KRAS) ([1]; SPR): B (a compound having 3 or more and less than 10 is denoted as B); HRAS/KRAS (ratio of KD for GDP-bound HRAS wild-type to KD for KRAS) ([2]; SPR): C (A compound having a KD ratio of 0.1 or more and less than 3 is denoted as C)

Which results are given for `CCC[C@H]1C(=O)N[C@@H]([C@@H](C)CC)C(=O)N(C)CC(=O)N(C)[C@H]2C/C=C\CCN(C2=O)[C@@H](Cc2ccc(C)cc2)C(=O)N(C)CC(=O)N[C@@H](CCc2ccc3ccn(C)c3c2)C(=O)N2C[C@H](OCC)C[C@H]2C(=O)NC2(CC(C)(C)C2)C(=O)N(C)[C@@H](C(CC)CC)C(=O)N(C)[C@H](C(=O)N(C)C)CC(=O)N1C` [PP2914]?
NRAS/KRAS (ratio of KD value with respect to GDP-bound NRAS wild-type protein to KD value with respect to KRAS) ([1]; class symbols): AA (a compound having 20 or more is denoted as AA); HRAS/KRAS (ratio of KD value with respect to GDP-bound HRAS wild-type protein to KD value with respect to KRAS) ([2]; class symbols): A (a compound having 10 or more and less than 20 is denoted as A)

What does the source list for `CCO[C@@H]1C[C@H]2C(=O)NC3(CCC3)C(=O)N(C)[C@@H](C3CCCC3)C(=O)N(C)[C@H](C(=O)N(C)CC)CC(=O)N(C)[C@@H](CC(F)F)C(=O)N[C@@H]([C@@H](C)CC)C(=O)N(C)CC(=O)N(C)[C@H]3C/C=C\CCN(C3=O)[C@@H](Cc3ccc(C(F)(F)F)cc3)C(=O)N(C)CC(=O)N[C@@H](CCc3cc(F)c(C(F)(F)F)c(F)c3)C(=O)N2C1` [PP1303]?
NRAS/KRAS (ratio of KD value for GDP-bound NRAS wild-type protein to KD value for KRAS) ([1]; SPR, KD ratio class): AA (a compound having 20 or more is denoted as AA); HRAS/KRAS (ratio of KD value for GDP-bound HRAS wild-type protein to KD value for KRAS) ([2]; SPR, KD ratio class): A (a compound having 10 or more and less than 20 is denoted as A)
